Data: publication PMC7845594, “Novel Immune Modulators Enhance Caenorhabditis elegans Resistance to Multiple Pathogens” (mSphere, 2021)

Experiments:
[1] = tested on: C. elegans host defense pathway genes; test: nanoString expression of 115 immune- and stress-responsive genes; conditions: 100 μM LK molecules, 16 h
Protocol: The ratio of MIC to EC was determined for each of the 69 compounds.
Analysis of the expression of 115 immune- and stress-responsive genes using nanoString technology. Download Table S1, XLSX file, 0.02 MB.
For nanoString-based (nanoString Technologies, Seattle, WA) experiments, 2,000 wild-type, young adult worms were exposed to 100 μM LK molecules or DMSO control in S Basal medium in 6-well plates for 16 h. RNA purification and gene expression analysis were performed according to nanoString guidelines. Two biological replicates were tested for each condition.

[2] = tested on: reactive oxygen species (ROS); test: DHE staining (ROS level); format: in vivo, Caenorhabditis elegans; conditions: 50 or 100 µM, 10 h, no pathogen
Source text: Previous work from our lab has established that the ESRE network plays an important role in the resistance of C. elegans to pyoverdine, the main virulence determinant in liquid killing, and recent evidence has shown that ESRE activation depends on increased reactive oxygen species (ROS) ([23], [38], [39]). To evaluate ESRE activation, worms carrying an hsp-16.1p::GFP reporter (which contains two ESRE motifs and was previously used as an indicator of ESRE activation [[39][–][41]]), were exposed to 50 or 100 μM LK35, LK38, LK56, juglone (positive control), or DMSO. […] ROS level was assessed based on the fluorescence of dihydroethidium (DHE; a ROS-specific dye) using a COPAS FlowSort for flow vermimetry.
Young adult wild-type (A), hsp-4p::GFP (B), hsp-16.1p::GFP (C), or rpt-3::GFP (D) worms were incubated with LK molecules at 50 or 100 µM, DMSO control, or positive controls. For panel A, the worms were treated with compound for 10 h, and then the worms were stained with 4 µM DHE for 1 h before washing and fluorescence measurement. For panels B to D, the worms were treated with compound for 15 h prior to fluorescence measurement. Mean values from at least three biological replicates are shown. *, P < 0.05; **, P < 0.01; ***, P < 0.001 (compared to the solvent control). P values were calculated using Student’s t test. Error bars represent the standard error of the mean. […]

[3] = tested on: C. elegans exposed to P. aeruginosa strain PA14; test: P. aeruginosa slow-killing assay (agar); format: in vivo, Caenorhabditis elegans; conditions: wild-type worms, 50 µM, Fig 8 (DMSO 58.9)
Source text: The finding that each of the compounds activated PMK-1/p38 MAPK targets was of interest, as this pathway is associated with enhanced immunity against multiple bacterial pathogens in agar-based C. elegans assays. Therefore, we tested whether these compounds could promote survival in an agar-based, high-colonization pathogenesis model known as slow killing. Loss of PMK-1 activity substantially compromises survival in the slow-killing assay ([16], [47]). Wild-type, young adult worms were exposed to P. aeruginosa strain PA14 on agar plates impregnated with each of the five compounds. […] To see whether this depended upon the PMK-1 pathway, LK32, LK38, and LK56 were retested in worms where RNAi was used to knock down pmk-1/MAPK or atf-7/ATF7 (a key transcription factor whose activity is modulated by PMK-1 [63, 64]) (Fig. 9; see Table S2 in the supplemental material for TD50 and overall statistical significance).
FIG 8 Four LK molecules extend C. elegans life span in the slow-killing assay. […] The data shown are from a representative replicate. Each of the three biological replicates was comprised of three plates per condition, with each plate containing ∼60 worms. Statistical significance was calculated using a log-rank test. Worms that left the surface of the plate were excluded from analysis (see Table S2 in the supplemental material for TD50 and exact P values).
FIG 9 Rescue in slow killing by a subset of LK compounds depends upon the PMK-1/p38 MAPK pathway. Wild-type L4 worms were reared on RNAi targeting pmk-1/p38 MAPK, atf-7/ATF-7, or empty vector and placed onto slow-killing plates containing DMSO or LK32 (A and B), LK38 (C and D), or LK56 (E and F) at 50 µM. Starting at 24 h, worms were scored every 12 h for survival until all worms perished. Each of the three biological replicates was comprised of three plates, each plate contained approximately 50 to 70 worms. Statistical significance was calculated using log-rank test (see Table S2 in the supplemental material for TD50 and exact P values). For vector RNAi, DMSO versus compound, P < 0.001 for LK38, LK56, and LK32.
Supplementary file : FIG S5 NSY-1 and SEK-1, upstream members of the PMK-1/p38 MAPK pathway, are required for LK38-mediated rescue. Young adult wild-type, nsy-1/MAP3K15(ag3), or sek-1/MAP2K6(km-4) mutants were exposed to P. aeruginosa in the slow-killing assay in the presence of DMSO or LK38. Data for each condition at each time point represent the average value for three plates from one representative replicate (of three replicates total). Each plate contained ∼60 worms. P values were calculated using a log-rank test (see Table S2 in the supplemental material for the TD50 and exact P values). For wild-type DMSO versus LK38 P < 0.001. No statistically significant difference was measured between LK38 and DMSO for either mutant. Download FIG S5, PDF file, 0.1 MB.
Slow-killing (SK) plates were made as previously reported ([92]). Compounds were added to molten SK agar before pouring plates. After solidifying, 40 µl of PA14 overnight culture was spread on plates before incubating plates at 37°C for 24 h, followed by 25°C for 24 h. 5-fluoro-2′-deoxyuridine (FUDR) (0.1 mg/ml) was dropped on plates 30 min prior to picking worms, to ensure nematode sterility. Fifty to seventy L4-stage, wild-type worms were picked onto plates and scored every 12 h after the first 24 h, until all worms were dead. Three biological replicates were performed.

## Cc1cc(C2CCCCC2)n(O)c(=O)c1 [Ciclopirox, reference compound]
[1]
  B0024.4 expression, induction: 1.09 fold
  C02B4.2 nhr-17 expression, induction: 5.80 fold
  C06B3.7 expression, induction: 3.19 fold
  C07G3.2 irg-1 expression, induction: 1.06 fold
  C12C8.1 hsp-70 expression, induction: 3.28 fold
  C15F1.7 sod-1 expression, induction: 2.15 fold
  C29F7.2 expression, induction: 10.38 fold
  C31A11.5 oac-6 expression, induction: 5.76 fold
  C32D5.12 expression, induction: 1.22 fold
  C32H11.1 expression, induction: 20.23 fold
  C32H11.3 expression, induction: 2.02 fold
  C34G6.4 pgp-2 expression, induction: 3.63 fold
  C37C3.10 expression, induction: 12.27 fold
  C37H5.8 hsp-6 expression, induction: 4.01 fold
  C49G7.5 irg-2 expression, induction: 3.65 fold
  F08F8.5 numr-1 expression, induction: 8.74 fold
  F08H9.4 expression, induction: 4.96 fold
  F14F9.3 expression, induction: 1.98 fold
  F22B5.4 expression, induction: 2.49 fold
  F22H10.2 expression, induction: 2.82 fold
  F26A3.4 expression, induction: 2.35 fold
  F35E8.11 cdr-1 expression, induction: 56.32 fold
  F35G2.4 phy-2 expression, induction: 1.70 fold
  F37B12.2 gcs-1 expression, induction: 1.30 fold
  F43E2.8 hsp-4 expression, induction: 10.74 fold
  F44E5.5 expression, induction: 2.67 fold
  F49F1.6 expression, induction: 2.55 fold
  F49F1.7 expression, induction: 15.81 fold
  F49H6.13 expression, induction: 2.90 fold
  F54B8.4 expression, induction: 6.33 fold
  F55G11.2 expression, induction: 1.86 fold
  F59A7.1 clec-206 expression, induction: 11.44 fold
  F59B10.4 expression, induction: 1.20 fold
  H12D21.1 nspa-1 expression, induction: 3.83 fold
  H23N18.1 ugt-13 expression, induction: 5.56 fold
  H23N18.3 ugt-8 expression, induction: 108.33 fold
  K05B2.4 expression, induction: 8.10 fold
  K08F4.7 gst-4 expression, induction: 2.79 fold
  K09A9.1 nipi-3 expression, induction: 2.12 fold
  K10D11.2 expression, induction: 2.25 fold
  K10G4.3 expression, induction: 2.60 fold
  R03D7.6 gst-5 expression, induction: 11.91 fold
  R08H2.1 dhs-23 expression, induction: 120.99 fold
  R10E8.3 expression, induction: 3.34 fold
  T19D12.3 expression, induction: 2.80 fold
  T19H12.1 ugt-9 expression, induction: 6.34 fold
  T21E8.1 pgp-6 expression, induction: 0.94 fold
  T22B7.3 expression, induction: 2.18 fold
  T24C4.4 expression, induction: 1.62 fold
  T24E12.5 expression, induction: 3.07 fold
  T27E4.3 hsp-16.48 expression, induction: 2.96 fold
  T27E4.8 hsp-16.1 expression, induction: 2.80 fold
  T27F6.8 expression, induction: 4.80 fold
  T28C12.4 expression, induction: 13.23 fold
  W02D9.10 expression, induction: 2.74 fold
  Y22D7AL.5 hsp-60 expression, induction: 2.19 fold
  Y38E10A.15 nspe-7 expression, induction: 1.84 fold
  Y46H3A.2 hsp-16.41 expression, induction: 2.63 fold
  Y46H3A.3 hsp-16.2 expression, induction: 2.71 fold
  Y56A3A.33 expression, induction: 3.70 fold
  Y58A7A.5 expression, induction: 1.48 fold
  ZC376.7 atfs-1 expression, induction: 3.27 fold
  ZC443.6 ugt-16 expression, induction: 52.72 fold
  ZK697.6 gst-21 expression, induction: 454.34 fold

## C=C(C)[C@H]1Cc2c(ccc3c2O[C@@H]2COc4cc(OC)c(OC)cc4[C@@H]2C3=O)O1 [rotenone]
[2]
  ROS level (DHE staining): significant increase in staining

## Cc1ccc(Nc2nc(N)c3ccccc3n2)cc1Cl [RPW-24, reference compound]
[3]
  TD50, slow killing: 63.7 h
